Measurements published in PMC9848257, “Design and synthesis of novel rigid dibenzo[b,f]azepines through ring closure technique as promising anticancer candidates against leukaemia and acting as selective topoisomerase II inhibitors and DNA intercalators” (Journal of Enzyme Inhibition and Medicinal Chemistry, 2023).

Experiments:
[1] = tested on: OVCAR-4; assay: NCI-60 one-dose screen, OVCAR-4; type: cell-based; conditions: Homo sapiens; OVCAR-4, ovarian cancer; single dose 10 μM; read-out: Growth inhibition %
Method: (§1) Anti-proliferative effects of the counterparts 4a–g and 5a–g were screened against 60 human cancer cell lines, following the Developmental Therapeutics Program protocol, National Cancer Institute[35].
(§2) The anti-tumour activity of the fourteen synthesised congeners was investigated at the NCI against a panel of 60 cancer cell lines (NCI-60 Cell One-Dose Screen). The tested dibenzo[b,f]azepine derivatives were screened at a single dose level (10 μM), Table 1.

[2] = tested on: DU-145; assay: NCI-60 one-dose screen, DU-145; type: cell-based; conditions: Homo sapiens; DU-145, prostate cancer; single dose 10 μM; read-out: Growth inhibition %
Method: as §1, §2

[3] = tested on: RPMI-8226; assay: NCI-60 one-dose screen, RPMI-8226; type: cell-based; conditions: Homo sapiens; RPMI-8226, leukaemia; single dose 10 μM; read-out: Growth inhibition %
Method: as §1, §2

[4] = tested on: CCRF-CEM; assay: NCI-60 one-dose screen, CCRF-CEM; type: cell-based; conditions: Homo sapiens, leukaemia, single dose 10 μM, read-out: Growth inhibition %
Method: as §1, §2

[5] = tested on: SF-295; assay: NCI-60 one-dose screen, SF-295; type: cell-based; conditions: Homo sapiens; SF-295, CNS cancer; single dose 10 μM; read-out: Growth inhibition %
Method: as §1, §2

[6] = tested on: SNB-19; assay: NCI-60 one-dose screen, SNB-19; type: cell-based; conditions: Homo sapiens; SNB-19, CNS cancer; single dose 10 μM; read-out: Growth inhibition %
Method: as §1, §2

[7] = tested on: PC-3; assay: NCI-60 one-dose screen, PC-3; type: cell-based; conditions: Homo sapiens; PC-3, prostate cancer; single dose 10 μM; read-out: Growth inhibition %
Method: as §1, §2

[8] = tested on: U251; assay: NCI-60 one-dose screen, U251; type: cell-based; conditions: Homo sapiens, U-251; U251, CNS cancer; single dose 10 μM; read-out: Growth inhibition %
Method: as §1, §2

[9] = tested on: K-562; assay: NCI-60 one-dose screen, K-562; type: cell-based; conditions: Homo sapiens, K562; K-562, leukaemia; single dose 10 μM; read-out: Growth inhibition %
Method: as §1, §2

[10] = tested on: TK-10; assay: NCI-60 one-dose screen, TK-10; type: cell-based; conditions: Homo sapiens; TK-10, renal cancer; single dose 10 μM; read-out: Growth inhibition %
Method: as §1, §2

[11] = tested on: HS 578 T; assay: NCI-60 one-dose screen, HS 578 T; type: cell-based; conditions: Homo sapiens, breast cancer, single dose 10 μM, read-out: Growth inhibition %
Method: as §1, §2

[12] = tested on: SK-MEL-5; assay: NCI-60 one-dose screen, SK-MEL-5; type: cell-based; conditions: Homo sapiens; SK-MEL-5, melanoma; single dose 10 μM; read-out: Growth inhibition %
Method: as §1, §2

[13] = tested on: OVCAR-8; assay: NCI-60 one-dose screen, OVCAR-8; type: cell-based; conditions: Homo sapiens; OVCAR-8, ovarian cancer; single dose 10 μM; read-out: Growth inhibition %
Method: as §1, §2

[14] = tested on: SK-OV-3; assay: NCI-60 one-dose screen, SK-OV-3; type: cell-based; conditions: Homo sapiens; SK-OV-3, ovarian cancer; single dose 10 μM; read-out: Growth inhibition %
Method: as §1, §2

[15] = tested on: MDA-MB-231-ATCC; assay: NCI-60 one-dose screen, MDA-MB-231-ATCC; type: cell-based; conditions: Homo sapiens, breast cancer, single dose 10 μM, read-out: Growth inhibition %
Method: as §1, §2

[16] = tested on: NCI-H226; assay: NCI-60 one-dose screen, NCI-H226; type: cell-based; conditions: Homo sapiens; NCI-H226, non-small cell lung cancer; single dose 10 μM; read-out: Growth inhibition %
Method: as §1, §2

[17] = tested on: SR; assay: NCI-60 one-dose screen, SR; type: cell-based; conditions: Homo sapiens, leukaemia, single dose 10 μM, read-out: Growth inhibition %
Method: as §1, §2

[18] = tested on: UACC-62; assay: NCI-60 one-dose screen, UACC-62; type: cell-based; conditions: Homo sapiens; UACC-62, melanoma; single dose 10 μM; read-out: Growth inhibition %
Method: as §1, §2

[19] = tested on: HL-60(TB); assay: NCI-60 one-dose screen, HL-60(TB); type: cell-based; conditions: Homo sapiens, leukaemia, single dose 10 μM, read-out: Growth inhibition %
Method: as §1, §2

[20] = tested on: OVCAR-3; assay: NCI-60 one-dose screen, OVCAR-3; type: cell-based; conditions: Homo sapiens; OVCAR-3, ovarian cancer; single dose 10 μM; read-out: Growth inhibition %
Method: as §1, §2

[21] = tested on: HT29; assay: NCI-60 one-dose screen, HT29; type: cell-based; conditions: Homo sapiens, HT-29; HT29, colon cancer; single dose 10 μM; read-out: Growth inhibition %
Method: as §1, §2

[22] = tested on: SK-MEL-28; assay: NCI-60 one-dose screen, SK-MEL-28; type: cell-based; conditions: Homo sapiens; SK-MEL-28, melanoma; single dose 10 μM; read-out: Growth inhibition %
Method: as §1, §2

[23] = tested on: MDA-MB-435; assay: NCI-60 one-dose screen, MDA-MB-435; type: cell-based; conditions: Homo sapiens; MDA-MB-435, melanoma; single dose 10 μM; read-out: Growth inhibition %
Method: as §1, §2

[24] = tested on: UO-31; assay: NCI-60 one-dose screen, UO-31; type: cell-based; conditions: Homo sapiens; UO-31, renal cancer; single dose 10 μM; read-out: Growth inhibition %
Method: as §1, §2

[25] = tested on: MOLT-4; assay: NCI-60 one-dose screen, MOLT-4; type: cell-based; conditions: Homo sapiens; MOLT-4, leukaemia; single dose 10 μM; read-out: Growth inhibition %
Method: as §1, §2

[26] = tested on: EKVX; assay: NCI-60 one-dose screen, EKVX; type: cell-based; conditions: Homo sapiens, non-small cell lung cancer, single dose 10 μM, read-out: Growth inhibition %
Method: as §1, §2

[27] = tested on: SW-620; assay: NCI-60 one-dose screen, SW-620; type: cell-based; conditions: Homo sapiens; SW-620, colon cancer; single dose 10 μM; read-out: Growth inhibition %
Method: as §1, §2

[28] = tested on: COLO 205; assay: NCI-60 one-dose screen, COLO 205; type: cell-based; conditions: Homo sapiens; COLO 205, colon cancer; single dose 10 μM; read-out: Growth inhibition %
Method: as §1, §2

[29] = tested on: NCI-H522; assay: NCI-60 one-dose screen, NCI-H522; type: cell-based; conditions: Homo sapiens; NCI-H522, non-small cell lung cancer; single dose 10 μM; read-out: Growth inhibition %
Method: as §1, §2

[30] = tested on: HOP-92; assay: NCI-60 one-dose screen, HOP-92; type: cell-based; conditions: Homo sapiens; HOP-92, non-small cell lung cancer; single dose 10 μM; read-out: Growth inhibition %
Method: as §1, §2

[31] = tested on: A498; assay: NCI-60 one-dose screen, A498; type: cell-based; conditions: Homo sapiens; A498, renal cancer; single dose 10 μM; read-out: Growth inhibition %
Method: as §1, §2

[32] = tested on: HCT-116; assay: NCI-60 one-dose screen, HCT-116; type: cell-based; conditions: Homo sapiens; HCT-116, colon cancer; single dose 10 μM; read-out: Growth inhibition %
Method: as §1, §2

[33] = tested on: SF-268; assay: NCI-60 one-dose screen, SF-268; type: cell-based; conditions: Homo sapiens; SF-268, CNS cancer; single dose 10 μM; read-out: Growth inhibition %
Method: as §1, §2

[34] = tested on: KM12; assay: NCI-60 one-dose screen, KM12; type: cell-based; conditions: Homo sapiens; KM12, colon cancer; single dose 10 μM; read-out: Growth inhibition %
Method: as §1, §2

Cc1ccc(C(=O)NNC(=O)N2c3ccccc3C=Cc3ccccc32)cc1 [Compound 4d, N′-(4-Methylbenzoyl)-5H-dibenzo[b,f]azepine-5-carbohydrazide]
151 to 153 °C: melting point
10.3%: inhibition at 10 µM [10]
< 10%: inhibition at 10 µM [1] | inhibition at 10 µM [2] | inhibition at 10 µM [3] | inhibition at 10 µM [4] | inhibition at 10 µM [5] | inhibition at 10 µM [6] | inhibition at 10 µM [7] | inhibition at 10 µM [8] | inhibition at 10 µM [9] | inhibition at 10 µM [11] | inhibition at 10 µM [12] | inhibition at 10 µM [13] | inhibition at 10 µM [14] | inhibition at 10 µM [15] | inhibition at 10 µM [16] | inhibition at 10 µM [17] | inhibition at 10 µM [18] | inhibition at 10 µM [19] | inhibition at 10 µM [20] | inhibition at 10 µM [21] | inhibition at 10 µM [22] | inhibition at 10 µM [23] | inhibition at 10 µM [24] | inhibition at 10 µM [25] | inhibition at 10 µM [26] | inhibition at 10 µM [27] | inhibition at 10 µM [28] | inhibition at 10 µM [29] | inhibition at 10 µM [30] | inhibition at 10 µM [31] | inhibition at 10 µM [32] | inhibition at 10 µM [33] | inhibition at 10 µM [34]

O=C(NNC(=O)N1c2ccccc2C=Cc2ccccc21)c1ccc([N+](=O)[O-])cc1 [Compound 4e, N′-(4-Nitrobenzoyl)-5H-dibenzo[b,f]azepine-5-carbohydrazide]
241 to 243 °C: melting point
10%: inhibition at 10 µM [10]
< 10%: inhibition at 10 µM [1] | inhibition at 10 µM [2] | inhibition at 10 µM [3] | inhibition at 10 µM [4] | inhibition at 10 µM [5] | inhibition at 10 µM [6] | inhibition at 10 µM [7] | inhibition at 10 µM [8] | inhibition at 10 µM [9] | inhibition at 10 µM [11] | inhibition at 10 µM [12] | inhibition at 10 µM [13] | inhibition at 10 µM [14] | inhibition at 10 µM [15] | inhibition at 10 µM [16] | inhibition at 10 µM [17] | inhibition at 10 µM [18] | inhibition at 10 µM [19] | inhibition at 10 µM [20] | inhibition at 10 µM [21] | inhibition at 10 µM [22] | inhibition at 10 µM [23] | inhibition at 10 µM [24] | inhibition at 10 µM [25] | inhibition at 10 µM [26] | inhibition at 10 µM [27] | inhibition at 10 µM [28] | inhibition at 10 µM [29] | inhibition at 10 µM [30] | inhibition at 10 µM [31] | inhibition at 10 µM [32] | inhibition at 10 µM [33] | inhibition at 10 µM [34]

O=C(NNC(=O)N1c2ccccc2C=Cc2ccccc21)c1ccc2ccccc2c1 [Compound 4f, N′-(2-Naphthoyl)-5H-dibenzo[b,f]azepine-5-carbohydrazide]
12.8%: inhibition at 10 µM [9] | inhibition at 10 µM [17]
10%: inhibition at 10 µM [19]
243 to 245 °C: melting point
11%: inhibition at 10 µM [26]
14.1%: inhibition at 10 µM [29]
25.1%: inhibition at 10 µM [7]
< 10%: inhibition at 10 µM [1] | inhibition at 10 µM [2] | inhibition at 10 µM [3] | inhibition at 10 µM [4] | inhibition at 10 µM [5] | inhibition at 10 µM [6] | inhibition at 10 µM [8] | inhibition at 10 µM [10] | inhibition at 10 µM [11] | inhibition at 10 µM [12] | inhibition at 10 µM [13] | inhibition at 10 µM [14] | inhibition at 10 µM [15] | inhibition at 10 µM [16] | inhibition at 10 µM [20] | inhibition at 10 µM [22] | inhibition at 10 µM [23] | inhibition at 10 µM [25] | inhibition at 10 µM [27] | inhibition at 10 µM [28] | inhibition at 10 µM [31] | inhibition at 10 µM [32] | inhibition at 10 µM [33] | inhibition at 10 µM [34]
18.9%: inhibition at 10 µM [18]
11.4%: inhibition at 10 µM [21]
12%: inhibition at 10 µM [24]
18.6%: inhibition at 10 µM [30]

O=C(Cc1ccccc1)NNC(=O)N1c2ccccc2C=Cc2ccccc21 [Compound 4g, N′-(2-Phenylacetyl)-5H-dibenzo[b,f]azepine-5-carbohydrazide]
13.8%: inhibition at 10 µM [26]
134 to 136 °C: melting point
< 10%: inhibition at 10 µM [1] | inhibition at 10 µM [2] | inhibition at 10 µM [3] | inhibition at 10 µM [4] | inhibition at 10 µM [5] | inhibition at 10 µM [6] | inhibition at 10 µM [7] | inhibition at 10 µM [8] | inhibition at 10 µM [9] | inhibition at 10 µM [10] | inhibition at 10 µM [11] | inhibition at 10 µM [12] | inhibition at 10 µM [13] | inhibition at 10 µM [14] | inhibition at 10 µM [15] | inhibition at 10 µM [16] | inhibition at 10 µM [17] | inhibition at 10 µM [18] | inhibition at 10 µM [19] | inhibition at 10 µM [20] | inhibition at 10 µM [21] | inhibition at 10 µM [22] | inhibition at 10 µM [23] | inhibition at 10 µM [24] | inhibition at 10 µM [25] | inhibition at 10 µM [27] | inhibition at 10 µM [28] | inhibition at 10 µM [29] | inhibition at 10 µM [30] | inhibition at 10 µM [31] | inhibition at 10 µM [32] | inhibition at 10 µM [33] | inhibition at 10 µM [34]
